Read-outs that look alike come from different tables or passages of the source.
Tests used:
Format in all cases: cell-based
[1] = tested on: Panc-2 cells; assay: MTS assay, percent viability of Panc-2 cells; conditions: for cell death: time not given; for viability at 40 µM / viability at 100 µM / viability at 80 µM: read-out: percent viability of Panc-2 cells
Experimental: (§1) In current study we have tested anti-tumor potency of 7, 3-BP analogues employing MTS and ATP assay. The percent viability of Pan-2 cells was determined in presence of graded concentration of 3BP analogues 0, 1, 2, 3, 4, 5, 6 & 7.
Panc2 cells were seeded in either 6 well plate (6-6.5×10^4 cells/well/2 ml media) or in 12 well plate (3-3.5×10^4/1 ml media) or in 96 well plate ([…] /well/100 ul) in RPMI 1640 with 10% FBS, 0.5% antibiotic media for about 12 hours, in CO2 cell culture incubator at 37 °C. The cells were treated initially with KAT 0, 5, 20, 40, 80 and 100 uM for 1, 2, 4, 8 hours and latter in separate experiments with 40 and 60 µM for 15, 30, 1 hour. For each treatment KAT was added in a volume maximum 10 ul. For control same amount of KAT buffer was used. At the end of each time point treatment MTS reagent (Cell titer 96 aqueous one solution, Promega, USA) was added to each well according to the manufacturer instruction and incubated for approx. 2 hours. After that 100 ul from each well was transferred to 96 well plate (quartiles for each treatment) and measured absorbance at 490 nm with BIOTEK synergy HT. For 96 well plate reagent was added directly to each well, incubated for 2 hours and measured absorbance at 490 nm.

[2] = tested on: Panc-2 cells; assay: ATP assay (cell titer Glo2.0), ATP generation in panc-2 cells; conditions: 40 μM; for cells killed in terms of ATP generation: time not given
Experimental: as §1
For ATP assay panc2 cells (2×10^3/in 100 ul media) were seeded in each well of 96 well luminescence plate (Corning, USA) for 12 hours in media described above. Cells were treated with KAT 0, 5, 20, 40, 80, 100 for 1, 2, 4, 8 hours. In separate experiments, cells were treated with KAT 40, 60 μM for 15, 30 & 60 min. At the end of each treatment, 100 ul ATP assay reagent cell titer Glo2.0 (Promega, USA) was added in each well, shacked on a rotating shaker for 2 mins, incubated at room temperature for 10 mins in dark and luminescence was measured with BIOTEK synergy HT.

[3] = tested on: Panc-2 cells; assay: Imaging of morphology of treated panc-2 cells
[4] = tested on: Panc-2 cells; assay: MTS assay, percent viability of Panc-2 cells; conditions: 40 μM; for cell death (cells killed) in terms of MTT: after 8 hours; for cells killed in terms of MTT: time not given

| SMILES | cells killed ([1]; 80 μM, 1 hour treatment) | ATP generation ([2]; 1 hour treatment) | ATP generation ([2]; after 8 hours) | viability at 40 µM ([1]; 1 h) | viability at 40 µM ([1]; 8 h) | cell death (cells killed) in terms of ATP generation ([2]; after 8 hours) | cell morphology ([3]; 40 μM, after 8 hours) | cell death (cells killed) in terms of MTT [4] | cells killed in terms of ATP generation [2] | cells killed in terms of MTT [4] | other results |
| --- | --- | --- | --- | --- | --- | --- | --- | --- | --- | --- | --- |
| O=C(O)C(=O)CBr [Molecule 0, 3-Bromopyruvate, reference compound] | about 97% | 80% | 35% |  |  |  |  |  |  |  | cell death in Panc-2 cells ([1]; 40 μM, 1 hour treatment): 58%; percent viability of Panc-2 cells ([1]; 40 μM, 8 hours treatment): 24%; cell death (cells killed) ([1]; 80 μM, 8 hours treatment): 100%; cell morphology ([3]; 40, 80 and 100 μM): change in morphology |
| O=C(CBr)[13C](=O)O [Molecule 1] | 79% | 57% | 7% | 54% | 30% | 93% | rounding and membrane blabbing | 70% |  |  | cell death (cells killed) ([1]; 80 μM, 8 hours treatment): 96%; cell death ([1]; 80 and 100 uM): 95-97% |
| O=C(O)[13C](=O)CBr [Molecule 2] |  | 83% | 68% | ~52% | ~60% |  |  |  | 32% | 40% | cells killed ([1]; 80 μM, 4 hour treatment): about 99%; viability at 100 µM [1]: ~0%; cell morphology ([3]; 80 μM, time not given): rounding and membrane blabbing |
| O=C(O)C(=O)[13CH2]Br [Molecule 3] | ~88% | about 80% | about 66% | ~62% | ~46% |  | rounding and membrane blabbing |  | about 34% | about 54% | viability at 100 µM ([1]; 1 h): ~5% |
| [2H]C([2H])(Br)C(=O)C(=O)O [Molecule 4] | about 99% | 91% | about 76% | ~58% | ~60% |  |  |  | 32-40% | 32-40% | cell death ([1]; 100 μM): about 100%; cell morphology ([3]; 80 μM, after 2 hours): rounding and membrane blabbing |
| OC(=[18O])C(=[18O])CBr [Molecule 5] |  | about 69% | about 26% | ~48% | ~19% |  | rounding and membrane blabbing |  | about 74% | about 81% | viability at 80 µM ([1]; 1 h): ~6%; viability at 100 µM [1]: ~2% |
| O=[13C](O)[13C](=O)[13CH2]Br [Molecule 6] |  | 73% | 26% | ~66% | ~57% | about 74% | rounding and membrane blabbing | about 43% |  |  | viability at 80 µM ([1]; 1 h): ~32%; viability at 100 µM ([1]; 1 h): ~28% |
| O=C(O)C(=O)CBr [Molecule 7, 3-Bromopyruvate, reference compound] |  | 79% | 64% |  |  | about 74% | rounding and membrane blabbing | about 43% |  |  | percent viability of Panc-2 cells ([1]; 40 μM, 1 hour treatment): about 67%; percent viability of Panc-2 cells ([1]; 40 μM, 8 hours treatment): about 46%; percent viability of Panc-2 cells ([1]; 80 μM, 1 hour treatment): about 10%; percent viability of Panc-2 cells ([1]; 100 μM, 1 hour treatment): about 4% |

Reference: patent publication US20260207788A1, “HEAVY ISOTOPE 3-BP MOLECULES, COMPOSITIONS, AND TREATMENTS” (KODISCOVERY, LLC, priority 2022, published 2026)
